{
  "source": "patent US10111902B2",
  "about": "“Polymers for reversing heparin-based anticoagulation” (University of British Columbia, priority 2011, dated 2018)",
  "key": {"ctDNA": {"tested_on": "ctDNA", "assay": "Binding affinity of polymers for ctDNA", "conditions": "buffered water (pH 7.2), 50 mM NaCl, 25° C"}, "blood": {"tested_on": "blood", "assay": "Blood compatibility at 1 mg/ml", "conditions": "footnote [3] to protamine: showed complement activation, platelet activation, behaved like an anticoagulant, massive hemolysis"}},
  "data": [
    {"compound": "NCCCNCCCCNCCCN", "note": "[Tetramine (spermine), spermine]", "values": [
      {"measurement": "C50 (nM) [1]", "setting": "ctDNA", "result": 2788, "unit": "nM"},
      {"measurement": "Blood compatibility at 1 mg/ml", "setting": "blood", "result": "poor"}
    ]}
  ]
}
